From the NIST ThermoML archive (doi:10.1021/je0340755)

Test: xn = mol fraction of the nth substance listed
Details: 101.3 kPa, Liquid; for viscosity: Capillary tube (Ostwald / Ubbelohde) method

OCCCO [propan-1,3-diol] + O
Details | mass density [kg/m3] | speed of sound [m/s] | viscosity [mPa·s]
298.15 K, x2 = 0.0622 | 1050.19 | 1650.1 | 37.15
298.15 K, x2 = 0.1496 | 1050.32 | 1654.3 | 32.92
298.15 K, x2 = 0.2563 | 1050.38 | 1670.2 | 27.68
298.15 K, x2 = 0.35 | 1050.3 | 1693.5 | 23.09
298.15 K, x2 = 0.4555 | 1049.74 | 1717.8 | 18.09
298.15 K, x2 = 0.5 | 1049.21 | 1723.1 | 16.07
298.15 K, x2 = 0.5548 | 1048.18 | 1726.1 | 13.67
298.15 K, x2 = 0.6522 | 1044.85 | 1723.3 | 9.731
298.15 K, x2 = 0.7553 | 1038.16 | 1712.1 | 6.136
298.15 K, x2 = 0.8522 | 1027.32 | 1689.1 | 3.434
298.15 K, x2 = 0.9085 | 1018.19 | 1653.2 | 2.22
298.15 K, x2 = 0.9147 | 1017.03 | 1646.8 | 2.104
298.15 K, x2 = 0.9255 | 1014.92 | 1636.1 | 1.91
298.15 K, x2 = 0.935 | 1012.97 | 1623.9 | 1.749
298.15 K, x2 = 0.9548 | 1008.63 | 1596 | 1.442
298.15 K, x2 = 0.9556 | 1008.44 | 1594 | 1.43
298.15 K, x2 = 0.9602 | 1007.37 | 1586 | 1.365
298.15 K, x2 = 0.97 | 1005 | 1568.2 | 1.233
298.15 K, x2 = 0.9801 | 1002.45 | 1547.1 | 1.107
298.15 K, x2 = 0.9897 | 999.9 | 1525.3 | 0.997
298.15 K, x2 = 0.9921 | 999.25 | 1519.1 | 0.971
298.15 K, x2 = 0.9951 | 998.42 | 1511 | 0.939
308.15 K, x2 = 0.0622 | 1043.88 | 1627.1 | 25.31
308.15 K, x2 = 0.1496 | 1044.01 | 1634.1 | 22.46
308.15 K, x2 = 0.2563 | 1044.07 | 1645.9 | 18.9
308.15 K, x2 = 0.35 | 1043.97 | 1662.2 | 15.8
308.15 K, x2 = 0.4555 | 1043.39 | 1681 | 12.44
308.15 K, x2 = 0.5 | 1042.86 | 1688 | 11.08
308.15 K, x2 = 0.5548 | 1041.87 | 1695.1 | 9.49
308.15 K, x2 = 0.6522 | 1038.75 | 1702.2 | 6.881
308.15 K, x2 = 0.7553 | 1032.55 | 1698.8 | 4.495
308.15 K, x2 = 0.8522 | 1022.53 | 1676.1 | 2.66
308.15 K, x2 = 0.9085 | 1014.02 | 1642.1 | 1.794
308.15 K, x2 = 0.9147 | 1012.94 | 1637.1 | 1.708
308.15 K, x2 = 0.9255 | 1010.96 | 1627.1 | 1.562
308.15 K, x2 = 0.935 | 1009.13 | 1617.2 | 1.439
308.15 K, x2 = 0.9548 | 1005.04 | 1594.1 | 1.197
308.15 K, x2 = 0.9556 | 1004.87 | 1593.1 | 1.188
308.15 K, x2 = 0.9602 | 1003.85 | 1586.2 | 1.135
308.15 K, x2 = 0.97 | 1001.61 | 1572.1 | 1.025
308.15 K, x2 = 0.9801 | 999.19 | 1556.1 | 0.917
308.15 K, x2 = 0.9897 | 996.76 | 1539.3 | 0.819
308.15 K, x2 = 0.9921 | 996.14 | 1534.1 | 0.795
308.15 K, x2 = 0.9951 | 995.35 | 1528.8 | 0.766
318.15 K, x2 = 0.0622 | 1037.53 | 1609.1 | 15.8
318.15 K, x2 = 0.1496 | 1037.64 | 1616 | 14.16
318.15 K, x2 = 0.2563 | 1037.68 | 1627.8 | 12.19
318.15 K, x2 = 0.35 | 1037.55 | 1643 | 10.48
318.15 K, x2 = 0.4555 | 1036.94 | 1661 | 8.554
318.15 K, x2 = 0.5 | 1036.42 | 1667 | 7.749
318.15 K, x2 = 0.5548 | 1035.46 | 1674.1 | 6.767
318.15 K, x2 = 0.6522 | 1032.48 | 1682 | 5.075
318.15 K, x2 = 0.7553 | 1026.64 | 1683 | 3.415
318.15 K, x2 = 0.8522 | 1017.23 | 1666.1 | 2.057
318.15 K, x2 = 0.9085 | 1009.22 | 1639.2 | 1.397
318.15 K, x2 = 0.9147 | 1008.19 | 1635.3 | 1.331
318.15 K, x2 = 0.9255 | 1006.32 | 1625.9 | 1.221
318.15 K, x2 = 0.935 | 1004.59 | 1617.9 | 1.127
318.15 K, x2 = 0.9548 | 1000.71 | 1598.1 | 0.945
318.15 K, x2 = 0.9556 | 1000.54 | 1592.2 | 0.938
318.15 K, x2 = 0.9602 | 999.58 | 1580.1 | 0.898
318.15 K, x2 = 0.97 | 997.45 | 1566.1 | 0.817
318.15 K, x2 = 0.9801 | 995.14 | 1552.1 | 0.737
318.15 K, x2 = 0.9897 | 992.82 | 1549.9 | 0.667
318.15 K, x2 = 0.9921 | 992.23 | 1548.1 | 0.65
318.15 K, x2 = 0.9951 | 991.47 | 1543.2 | 0.629
328.15 K, x2 = 0.0622 | 1031.1 | 1585.1 | 10.49
328.15 K, x2 = 0.1496 | 1031.18 | 1591.1 | 9.407
328.15 K, x2 = 0.2563 | 1031.17 | 1603.2 | 8.114
328.15 K, x2 = 0.35 | 1030.98 | 1618.2 | 6.986
328.15 K, x2 = 0.4555 | 1030.32 | 1635.8 | 5.721
328.15 K, x2 = 0.5 | 1029.79 | 1642.1 | 5.192
328.15 K, x2 = 0.5548 | 1028.83 | 1649.1 | 4.547
328.15 K, x2 = 0.6522 | 1025.94 | 1657.8 | 3.436
328.15 K, x2 = 0.7553 | 1020.39 | 1661.1 | 2.346
328.15 K, x2 = 0.8522 | 1011.49 | 1651.2 | 1.456
328.15 K, x2 = 0.9085 | 1003.89 | 1630 | 1.024
328.15 K, x2 = 0.9147 | 1002.92 | 1626.2 | 0.981
328.15 K, x2 = 0.9255 | 1001.14 | 1620.2 | 0.909
328.15 K, x2 = 0.935 | 999.49 | 1613.2 | 0.848
328.15 K, x2 = 0.9548 | 995.78 | 1597.2 | 0.729
328.15 K, x2 = 0.9556 | 995.62 | 1596.1 | 0.725
328.15 K, x2 = 0.9602 | 994.7 | 1591.8 | 0.699
328.15 K, x2 = 0.97 | 992.65 | 1582.1 | 0.646
328.15 K, x2 = 0.9801 | 990.44 | 1571.1 | 0.594
328.15 K, x2 = 0.9897 | 988.21 | 1559.2 | 0.549
328.15 K, x2 = 0.9921 | 987.63 | 1556.2 | 0.538
328.15 K, x2 = 0.9951 | 986.91 | 1552.2 | 0.524
338.15 K, x2 = 0.0622 | 1024.56 | 1565.1 | 7.386
338.15 K, x2 = 0.1496 | 1024.59 | 1571.2 | 6.633
338.15 K, x2 = 0.2563 | 1024.49 | 1582.3 | 5.732
338.15 K, x2 = 0.35 | 1024.2 | 1594.8 | 4.946
338.15 K, x2 = 0.4555 | 1023.41 | 1611.1 | 4.065
338.15 K, x2 = 0.5 | 1022.84 | 1616.8 | 3.696
338.15 K, x2 = 0.5548 | 1021.85 | 1623.9 | 3.247
338.15 K, x2 = 0.6522 | 1019 | 1634.1 | 2.473
338.15 K, x2 = 0.7553 | 1013.69 | 1639 | 1.715
338.15 K, x2 = 0.8522 | 1005.25 | 1632 | 1.096
338.15 K, x2 = 0.9085 | 998.04 | 1616 | 0.797
338.15 K, x2 = 0.9147 | 997.1 | 1613.2 | 0.767
338.15 K, x2 = 0.9255 | 995.41 | 1608.2 | 0.717
338.15 K, x2 = 0.935 | 993.83 | 1603.1 | 0.675
338.15 K, x2 = 0.9548 | 990.28 | 1591.1 | 0.593
338.15 K, x2 = 0.9556 | 990.13 | 1591.3 | 0.59
338.15 K, x2 = 0.9602 | 989.24 | 1587.1 | 0.572
338.15 K, x2 = 0.97 | 987.28 | 1579.9 | 0.536
338.15 K, x2 = 0.9801 | 985.14 | 1571 | 0.501
338.15 K, x2 = 0.9897 | 982.99 | 1562 | 0.469
338.15 K, x2 = 0.9921 | 982.43 | 1559.1 | 0.462
338.15 K, x2 = 0.9951 | 981.73 | 1556 | 0.453
